Assay results reported in patent US20070123699A1, “Peptide conjugate useful for cell nucleus molecular imaging and tumor therapy” (priority 2002, published 2007).

How the values were obtained:
[1] = i.v. administered alkylating drug, brain tumor; cited from earlier work
[2] = tested on: DU-145 prostate cancer cells; assay: MRI: DU-145 cell uptake and efflux of Gd^3+ conjugates (T1-weighted signal, relaxivity); type: cell-based, human
Method: (I) MRI: DU-145 Cell Uptake of the CNN—Gd^3+-Complex and CNRN—Gd^3+-Complex Compared to that of Magnevist®
DU-145 cells were harvested and divided into tubes (Falcon®, Becton Dickinson USA, Cat. No.: 35.2096) (Cell No.: 40×10^6 cells per tube). The CNN—Gd^3+-complex (Table 1, #1552a), the CNRN—Gd^3+-complex (Table 1, #1552b) and the Magnevist® were each dissolved in MEM in a concentration of 0.5 mM and were then incubated for 10, 20, 30 minutes up to 3 hours. […]
MR imaging used a 1.5-T whole body Siemens Magnetom Vision Plus with a standard circular polarized head coil. […] T1 and T2 relaxation-times within the pellets of the three tubes (CNN—Gd^3+, CNRN—Gd^3+, Magnevist) were measured to evaluate the intracellular relaxivity of the respective contrast agents (R=1/T1). The T1-relaxation time was measured by means of an inversion-recovery-sequence (TR: 5000 ms/TE: 76 ms/TI: 25-4000 ms, 17 different TI-values, scan-time 15×25 sec, FOV: 160 mm×160 mm, Matrix: 132×256, slice thickness: 7 mm, pixel size: 1.21×0.63 mm). T2 relaxation-time was measured by a multi-echo-sequence (TR: 5000 ms/16 TE-values: 30 ms-245 ms, FOV: 250 mm×250 mm, Matrix: 256×256, slice thickness: 5 mm, pixel size: 0.98×0.98 mm, scan time: 21 min 21 sec). […]

| Compound | fraction of drug in the blood passing the blood-brain barrier [1] | MRI signal change above that of DU-145 cells incubated solely in MEM ([2]; DU-145 cells, 0.5 mM, T1-weighted MRI) | relaxivity R (R=1/T1) within the DU-145 cell pellets ([2]; after incubation with contrast agent 0.5 mM) |
| --- | --- | --- | --- |
| Cn1nnc2c(C(N)=O)ncn2c1=O [Temodal] | about 30% | – | – |
| CNC[C@H](O)[C@@H](O)[C@H](O)[C@H](O)CO.CNC[C@H](O)[C@@H](O)[C@H](O)[C@H](O)CO.O=C([O-])CN(CCN(CC(=O)[O-])CC(=O)O)CCN(CC(=O)[O-])CC(=O)O.[Gd+3] [Magnevist, reference compound] | – | no signal change | 0.00069 |
